Here are results for ten molecules from patent publication US5395947A, “Platinum(II) complex and processes for preparing the same” (Sunkyong Industries, Ltd., priority 1991, dated 1995).

For one data set, the system named is murine leukemia L1210. The experiment in a line: Antitumor activity test on murine leukemia L1210 in vivo. Further details: species or system male BDF1 mice. The note with it: days 1, 5, 9. The method, then:
2. Antitumor activity test on murine leukemia L1210 in vivo
Murine leukemia L1210 cells were maintained in the peritoneal cavities of 6-week-old male DBA/2 mice by weekly transfer in accordance with the procedure described in cancer chemotherapy Reports, Part 3, 3(2), 7 (1972). Specifically, 1×10^6 leukemia cells were inoculated into the abdominal cavities of 6-week-old male BDF1 mice weighing 21±3 g on day 0. Each treatment group consisted of seven mice. The test compounds were dissolved or suspended in 0.5% carboxymethyl cellulose(CMC)solution (in water) and were administered intraperitoneally on days 1, 5, and 9 relative to the tumor inoculation.
Thirty mice of 6-week-old male BDF1 weighing 21±3 g were used as the control group, which were injected with 0.5% CMC solution only in the same manner as above.
Anti-tumor activities of the compounds were evaluated in terms of the T/C % values calculated from the mean survival time(T) of the compound-treated group over that(C) of the control group. [formula]

Data set [1] deals with murine leukemia L1210 cells. The experiment in a line: Growth inhibition test on cultured murine leukemia L1210 cells. Format: cell-based. The note with it: 48 hours, 37° C., Trypan blue viability. The method, then:
1. Growth inhibition test on cultured murine leukemia L1210 cells
Murine leukemia L1210 cells(1×10^5) were treated with various concentrations of the compounds prepared in the above examples in RPMI 1640 medium supplemented with 10% fetal calf serum, and cultured in a 5% CO2 humidified incubator at 37° C. for 48 hours. Their viability, estimated by staining with 0.17% Trypan blue, was compared with that of control cells cultured in the identical medium without the compounds.

Data set [2] can be described thus: Test for water solubility. Format: physicochemical. An excerpt: 3. Test for water solubility
A standard plot of UV absorbance(220 nm) vs. concentration was made; and employed to determine water-solubility.
The mixture was then passed through a 0.45 micron disposable membrane filter before dilution and UV measurement.

For another data set, the system named is ICR mice. Kind of data set: Acute toxicity test. The note with it: for Lethality: 10080 min. Further details: Lethality: unit not given here. Type of data set: in vivo. The method, then: 7-week-old ICR mice(male: 34±2 g; female: 31±2 g) were fed with solid food and water under the condition of 23±1° C. temperature and 65±5% humidity before the test.
Each treatment group consisted of 6 mice. The test compounds were administered intraperitoneally.
For 7 days after the administration, the appearance and the fate of the tested animals were recorded. The dead animals were subjected to autopsy and their visible pathological changes were observed. Their viscerals were stored in 10% formalin solution.

Consider `CCCC1OC2C[NH2+][Pt-2]3([NH2+]CC2O1)[O]CC(=O)[O]3` [Example 10, (glycolato-O,O')[(4R,5R)-4,5-bis(aminomethyl)-2-propyl-1,3-dioxolane]platinum(II)], for which the “T/C (%)” value was 154% in the data set on murine leukemia L1210 (3.1 mg/kg i.p.); 161% with murine leukemia L1210 (6.2 mg/kg i.p.); 201% in the data set with murine leukemia L1210 (12.5 mg/kg i.p.); “toxic” in the data set on murine leukemia L1210 (25 mg/kg i.p.); “toxic” in the data set with murine leukemia L1210 (50 mg/kg i.p.). Further, in data set [1], the “IC50 (concentration required for 50% inhibition of growth)” value turned out to be 0.13 µg/mL. Also, the Solubility in water in data set [2] (water) is over 30000 µg/mL.
For `CC(C)CC1OC2C[NH2+][Pt-2]3([NH2+]CC2O1)[O]CC(=O)[O]3` [Example 11, (glycolato-O,O')[(4R,5R)-4,5-bis(aminomethyl)-2-isobutyl-1,3-dioxolane]platinum(II)], the “T/C (%)” value in the data set with murine leukemia L1210 (3.1 mg/kg i.p.) is reported as 102%; in the data set on murine leukemia L1210 (6.2 mg/kg i.p.), 146%; in the data set on murine leukemia L1210 (12.5 mg/kg i.p.), 191%; with murine leukemia L1210 (25 mg/kg i.p.), “toxic”; in the data set with murine leukemia L1210 (50 mg/kg i.p.) it was “toxic”. Besides, the “IC50 (concentration required for 50% inhibition of growth)” value in data set [1] turned out to be 0.10 µg/mL. This molecule yielded a Solubility in water in data set [2] (water) of 4600 µg/mL.
For `CC(C)(C)C1OC2C[NH2+][Pt-2]3([NH2+]CC2O1)[O]CC(=O)[O]3` [Example 12, (glycolato-O,O')[(4R,5R)-4,5-bis(aminomethyl)-2-tert-butyl-1,3-dioxolane]platinum(II)], the “T/C (%)” value in the data set on murine leukemia L1210 (3.1 mg/kg i.p.) is 104%; with murine leukemia L1210 (6.2 mg/kg i.p.) it was 136%; in the data set on murine leukemia L1210 (12.5 mg/kg i.p.), 154%; in the data set with murine leukemia L1210 (25 mg/kg i.p.), 167%; in the data set on murine leukemia L1210 (50 mg/kg i.p.), “toxic”. Also, the “IC50 (concentration required for 50% inhibition of growth)” value in data set [1] turned out to be 0.10 µg/mL. The Solubility in water in data set [2] (water) came out at 2100 µg/mL.
For the molecule `CC1[O][Pt][O]C1=O.NCC1OC2(CCCCC2)OC1CN` [Example 16, (L-lactato-O,O'){cyclohexanespiro-2'-[(4'R,5'R)-4',5'-bis(aminomethyl)-1',3'-dioxolane]}platinum(II)], the figures for the “T/C (%)” value in the data set on murine leukemia L1210 (12.5 mg/kg i.p.), with murine leukemia L1210 (25 mg/kg i.p.) and in the data set with murine leukemia L1210 (50 mg/kg i.p.) were 204%, 227% and “toxic”, respectively. Further, in data set [1], the “IC50 (concentration required for 50% inhibition of growth)” value came to 0.34 µg/mL. In data set [2] (water), this molecule returned a Solubility in water of 3800 µg/mL.
As for `CC1[O][Pt][O]C1=O.CCC1OC(CN)C(CN)O1` [Example 18, (L-lactato-O,O')[(4R,5R)-4,5-bis(aminomethyl)-2-ethyl-1,3-dioxolane]platinum(II)], the “T/C (%)” value in the data set on murine leukemia L1210 (12.5 mg/kg i.p.) was 206%; with murine leukemia L1210 (25 mg/kg i.p.), 165%; in the data set on murine leukemia L1210 (50 mg/kg i.p.), “toxic”. In addition, the “IC50 (concentration required for 50% inhibition of growth)” value in data set [1] stood at 0.32 µg/mL. Moreover, the “Number of dead mice for 7 days” value in the data set on ICR mice (female, 41.3 mg/kg i.p.) is recorded as 3/6; with ICR mice (female, 54.9 mg/kg i.p.) it was 4/6; in the data set with ICR mice (female, 71.4 mg/kg i.p.), 5/6; with ICR mice (female, 91.8 mg/kg i.p.), 6/6; in the data set with ICR mice (male, 41.3 mg/kg i.p.), 4/6; in the data set on ICR mice (male, 54.9 mg/kg i.p.), 4/6. Also, the “Number of dead mice for 7 days” value in the data set with ICR mice (male, 71.4 mg/kg i.p.) is 5/6; in the data set with ICR mice (male, 91.8 mg/kg i.p.) it was 6/6. Moreover, the “Number of dead mice, 1st day” value is on record as 0/6 with ICR mice (female, 41.3 mg/kg i.p.); 0/6 with ICR mice (female, 54.9 mg/kg i.p.); 0/6 with ICR mice (female, 71.4 mg/kg i.p.); 1/6 with ICR mice (female, 91.8 mg/kg i.p.); 0/6 in the data set with ICR mice (male, 41.3 mg/kg i.p.); 0/6 with ICR mice (male, 54.9 mg/kg i.p.). Also, the “Number of dead mice, 1st day” value in the data set with ICR mice (male, 71.4 mg/kg i.p.) is 0/6; in the data set with ICR mice (male, 91.8 mg/kg i.p.), 0/6. Further, the “Number of dead mice, 5th day” value is given as 1/6 in the data set with ICR mice (female, 41.3 mg/kg i.p.); 1/3 in the data set with ICR mice (female, 54.9 mg/kg i.p.); 3/5 with ICR mice (female, 71.4 mg/kg i.p.); 1/1 in the data set on ICR mice (female, 91.8 mg/kg i.p.); 1/5 with ICR mice (male, 41.3 mg/kg i.p.); 1/3 in the data set on ICR mice (male, 54.9 mg/kg i.p.). Further, the “Number of dead mice, 5th day” value is given as 2/4 with ICR mice (male, 71.4 mg/kg i.p.) and 1/2 in the data set with ICR mice (male, 91.8 mg/kg i.p.). The “Number of dead mice, 6th day” value in the data set with ICR mice (female, 41.3 mg/kg i.p.) is 2/5; in the data set on ICR mice (female, 71.4 mg/kg i.p.) it was 1/2; in the data set on ICR mice (male, 41.3 mg/kg i.p.), 2/4; in the data set on ICR mice (male, 71.4 mg/kg i.p.) it was 1/2; in the data set with ICR mice (male, 91.8 mg/kg i.p.) it was 1/1. The Lethality with ICR mice (female, 41.3 mg/kg i.p.) was 55.0; with ICR mice (female, 54.9 mg/kg i.p.), 66.7; in the data set on ICR mice (female, 71.4 mg/kg i.p.), 83.3; with ICR mice (female, 91.8 mg/kg i.p.), 100.0; with ICR mice (male, 41.3 mg/kg i.p.), 66.7; in the data set with ICR mice (male, 54.9 mg/kg i.p.) it was 66.7. Also, the Lethality with ICR mice (male, 71.4 mg/kg i.p.) came to 83.3; with ICR mice (male, 91.8 mg/kg i.p.), 100.0. The “Number of dead mice, 3rd day” value in the data set with ICR mice (female, 54.9 mg/kg i.p.) is 1/6; with ICR mice (female, 91.8 mg/kg i.p.), 2/5; with ICR mice (male, 54.9 mg/kg i.p.), 1/5. The “Number of dead mice, 4th day” value in the data set with ICR mice (female, 54.9 mg/kg i.p.) was 2/5; in the data set on ICR mice (female, 71.4 mg/kg i.p.) it was 1/6; in the data set with ICR mice (female, 91.8 mg/kg i.p.) it was 2/3; in the data set with ICR mice (male, 41.3 mg/kg i.p.), 1/6; with ICR mice (male, 54.9 mg/kg i.p.), 1/4; in the data set on ICR mice (male, 71.4 mg/kg i.p.), 2/6. Also, the “Number of dead mice, 4th day” value in the data set on ICR mice (male, 91.8 mg/kg i.p.) is listed as 1/3. Besides, the “Number of dead mice, 2nd day” value in the data set on ICR mice (female, 91.8 mg/kg i.p.) is reported as 1/6; in the data set on ICR mice (male, 54.9 mg/kg i.p.), 1/6; in the data set with ICR mice (male, 91.8 mg/kg i.p.), 3/6.
Take `O=C1[O][Pt-2]2([NH2+]CC3OCOC3C[NH2+]2)[O]C(=O)C12CCC2` [Example 21, cis-cyclobutane-1,1-dicarboxylato[(4S,5S)-4,5-bis(aminomethyl)-1,3-dioxolane]platinum(II)]: in data set [1], the “IC50 (concentration required for 50% inhibition of growth)” value was determined as 2.08 µg/mL. In data set [2] (20° C.), the Solubility in water was 3100 µg/mL.
On to `CCC1OC2C[NH2+][Pt-2]3([NH2+]CC2O1)[O]C(=O)C1(CCC1)C(=O)[O]3` [Example 25, cis-cyclobutane-1,1-dicarboxylato[(4S,5S)-4,5-bis(aminomethyl)-2-ethyl-1,3-dioxolane]platinum(II)], for which, in data set [1], the “IC50 (concentration required for 50% inhibition of growth)” value is 1.02 µg/mL. The molecule further came in with a Solubility in water in data set [2] (20° C.) of 11800 µg/mL.
On the same counts, the results for `CC(C)C1OC2C[NH2+][Pt-2]3([NH2+]CC2O1)[O]C(=O)C1(CCC1)C(=O)[O]3` [Example 29, cis-cyclobutane-1,1-dicarboxylato[(4S,5S)-4,5-bis(aminomethyl)-2-isopropyl-1,3-dioxolane]platinum(II)] are 2.12 µg/mL and 2000 µg/mL.
The matching figures for `O=C1[O][Pt-2]2([NH2+]CC3OC4(CCCCC4)OC3C[NH2+]2)[O]C(=O)C12CCC2` [Example 32, cis-cyclobutane-1,1-dicarboxylato[(4R,5R)-4,5-bis(aminomethyl)-1,3-dioxolane-2-spiro-1'-cyclohexane]platinum(II)]: 1.05 µg/mL and 900 µg/mL.
On the same counts, the results for `NC[C@@H]1OC2(CCCCC2)O[C@H]1CN.O=C1[O][Pt][O]C(=O)C12CCC2` [Example 46, cis-cyclobutane-1,1-dicarboxylato[(4S, 5S)-4,5-bis(aminomethyl)-1,3-dioxolane-2-spiro-1'-cyclohexane]platinum(II)] are 2.23 µg/mL and 900 µg/mL.
